IC50 and mrna remaining data for six compounds are collected here from patent US11325921B2, “Optically active crosslinked cyclic secondary amine derivative” (Sumitomo Dainippon Pharma Co., Ltd., priority 2018, dated 2022).

The target in assay [1] is Menin-MLL binding (His-Menin1-615 / MLL1-172-FLAG) (Homo sapiens (Human), UniProt O00255). The assay is described as follows: Test 1: inhibition of the Menin-MLL binding (HTRF). As for the experimental part: Menin1-615 wherein 6× His tag and HA tag are inserted in the N-terminus, and myc tag is inserted in the C-terminus (hereinafter, referred to as His-Menin1-615), was diluted with an assay buffer (25 mmol/L HEPES, 150 mmol/L NaCl, 1 mmol/L dithiothreitol, 0.5% (w/v) Tween 80, 0.3% (w/v) BSA, 0.3% (w/v) skim milk) to adjust the final concentration Lo 30 nmol/L. The test compounds were also diluted with the assay buffer to adjust each concentration of the test compounds to 0.005 to 5 μmol/L. The prepared His-Menin1-615 and test compounds were added to a light-shielding 384-well low-volume plate (Corning, #4514) in 2 μL/well and 6 μL/well, respectively, and the plate was covered with a lid for light-shielding (Corning, r-3935), and incubated at room temperature for 3 hours. After the incubation, MLL1-172 wherein FLAG tag is inserted in the C-terminus (MLL1-172-FLAG), was separately diluted with the assay buffer to adjust the final concentration to 50 nmol/L. The prepared MLL1-172-FLAG was added to the above plate in 2 μL/well, and the plate was covered with a lid for light-shielding and incubated at room temperature for an hour.
Then, anti-6HIS-d2 antibody (cisbio, 61HISDLA) and anti-FLAGM2-K antibody (cisbio, 61FG2KLA) were diluted with an antibody dilution buffer (50 mmol/L Tris, 150 mmol/L NaCl, 800 mmol/L KF, pH 7.4) to adjust the final concentration to 1.4 μg/mL to prepare an antibody mixture. The prepared antibody mixture was added to the above plate in 10 μL/well, and the plate was covered with a lid and incubated at 4° C. for 17 to 24 hours. After the incubation, the signal was detected with RUBYstar (BMG LABTECH). The binding inhibition rate (%) at each concentration of the test compounds was calculated from the following formula, and the IC50 value was obtained, that corresponds to the concentration of the test compound at which the binding inhibition rate is 50%.
A general note: Time-resolved FRET reads energy transfer from a long-lived donor to a nearby acceptor.

Assay [2] has as its system MEIS1 mRNA in MV4; 11 cells. The assay is described as follows: Test 3: inhibition of mRNA transcription, MEIS1. As to conditions: Homo sapiens, MV4, 20 to 24 hours, fitted with GAPDH, read-out: mRNA at 1 μM (% control) MEIS1. In kind it is cell-based. As for the experimental part: (§1) MV4; 11 cells were obtained from American Type Culture Collection (ATCC). The cells were cultured at 37° C. in the presence of 5% CO2 in RPMI 1640 medium containing 10% fetal bovine serum and 1% penicillin/streptomycin. To the MV4; 11 cells was added each test compound to adjust the final concentration to 1 μmol/L, and the cells were cultured at 37° C. in the presence of 5% CO2 for 20 to 24 hours. After the incubation, the total RNA was extracted from the cells with RNeasy™ Mini Kit (QIAGEN, 74106), and cDNA was synthesized with Superscript™ VILO™ cDNA Synthesis Kit (Invitrogen, #11754250). By using TaqMan™ Gene Expression Master Mix (Applied Biosystems, 4369016) and TaqMan™ probe (Applied Biosystems), the expression level of mRNA was quantified from the obtained cDNA with 7900HT (Applied biosystems). The mRNA expression level of each obtained gene was fitted with the expression level of mRNA of GAPDH.

The subject of a further assay is MOLM-13 cells. In words: Test 2: inhibition of cell proliferation, MOLM-13. In kind it is cell-based. As to conditions: Homo sapiens, 168 h, cultured 7 days, PrestoBlue. On the procedure:
(§2) RS4; 11 cells were obtained from American Type Culture Collection (ATCC). The cells were cultured at 37° C. in the presence of 5% CO2 in RPMI 1640 medium containing 10% fetal bovine serum and 1% penicillin/streptomycin. MOLM-13 cells were separately obtained from DSMZ. The cells were cultured at 37° C. in the presence of 5% CO2 in RPMI 1640 medium containing 20% fetal bovine serum and 1% penicillin/streptomycin.
(§3) The cells were plated to a 96-well plate in 2000 cells/well, each test compound was added thereto to adjust the final concentration of DMSO to 0.1% of DMSO, and the cells were cultured for 7 days. After the cultivation, the cell viability was calculated with PrestoBlue™ Cell Viability Reagent (Invitrogen, A13261). The IC50 value was calculated from a survival curve, that corresponds to the concentration of the test compound at which the cell proliferation inhibition rate is 50%.

For assay [3], the system named is HOXA9 mRNA in MV4; 11 cells. In words: Test 3: inhibition of mRNA transcription, HOXA9. It counts as cell-based. As to conditions: Homo sapiens, 20 to 24 hours, fitted with GAPDH, read-out: mRNA at 1 μM (% control) HOXA9. On the procedure: as §1
A further assay relates to RS4; 11 cells. In words: Test 2: inhibition of cell proliferation, RS4; 11. As to conditions: Homo sapiens, 168 h, 11 cells, cultured 7 days, PrestoBlue. In kind it is cell-based. On the procedure: as §2, §3

pIC50: −log10 of the molar value.

Chain of Menin-MLL binding (His-Menin1-615 / MLL1-172-FLAG) (O00255 other isoform, or with tags, fused parts or gaps): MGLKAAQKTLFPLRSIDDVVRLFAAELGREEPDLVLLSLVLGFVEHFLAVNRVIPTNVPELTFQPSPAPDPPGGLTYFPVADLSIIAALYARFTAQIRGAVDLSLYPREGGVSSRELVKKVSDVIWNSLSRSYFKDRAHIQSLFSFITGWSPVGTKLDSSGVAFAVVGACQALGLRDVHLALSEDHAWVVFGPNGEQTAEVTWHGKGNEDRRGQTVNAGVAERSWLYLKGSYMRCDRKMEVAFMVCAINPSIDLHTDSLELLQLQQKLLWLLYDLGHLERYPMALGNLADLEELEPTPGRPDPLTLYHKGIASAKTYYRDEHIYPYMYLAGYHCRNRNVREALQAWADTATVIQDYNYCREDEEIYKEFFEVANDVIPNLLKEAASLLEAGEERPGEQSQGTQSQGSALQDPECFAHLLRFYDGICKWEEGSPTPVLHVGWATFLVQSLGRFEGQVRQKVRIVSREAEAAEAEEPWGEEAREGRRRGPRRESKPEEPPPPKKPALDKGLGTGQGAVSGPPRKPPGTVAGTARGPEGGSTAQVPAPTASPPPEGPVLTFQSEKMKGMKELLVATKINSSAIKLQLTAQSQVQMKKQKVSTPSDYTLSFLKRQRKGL

A word on the pIC50: it is −log10 of the IC50, conventionally taken in molar units. With `O=C([C@H]1N[C@H]2CC[C@@H]1C(F)(F)C2)N1CC2(C1)CN(c1c(C(F)(F)F)cnc3sc(CC(F)(F)F)cc13)C2` [Example 4, [(1S,3S,4S)-5,5-difluoro-2-azabicyclo[2.2.2]octan-3-yl]{6-[2-(2,2,2-trifluoroethyl)-5-(trifluoromethyl)thieno[2,3-b]pyridin-4-yl]-2,6-diazaspiro[3.3]heptan-2-yl}methanone], the pIC50 was 6.86 in assay [1], 5.77 in the assay with MOLM-13 cells and 6.11 in the assay with RS4; 11 cells. For the same compound, the values for the mrna remaining at 1 µM in assay [2] and in assay [3] were 65.4% and 60%, respectively.
Regarding `O=C([C@H]1N[C@H]2CC[C@@H]1C[C@@H]2O)N1CC2(C1)CN(c1c(C(F)(F)F)cnc3sc(CC(F)(F)F)cc13)C2` [Example 6, [(1S,3S,4R,6S)-6-hydroxy-2-azabicyclo[2.2.2]octan-3-yl]{6-[2-(2,2,2-trifluoroethyl)-5-(trifluoromethyl)thieno[2,3-b]pyridin-4-yl]-2,6-diazaspiro[3.3]heptan-2-yl}methanone], the pIC50 was 7.56 in assay [1], 6.08 in the assay on MOLM-13 cells and 6.24 with RS4; 11 cells. Further, the mrna remaining at 1 µM in assay [2] came to 51.3%; in assay [3], 54.3%.
For `O=C1C[C@@H]2CC[C@H]1[C@@H](C(=O)N1CC3(C1)CN(c1c(C(F)(F)F)cnc4sc(CC(F)(F)F)cc14)C3)N2` [Example 8, (1S,3S,4S)-3-{6-[2-(2,2,2-trifluoroethyl)-5-(trifluoromethyl)thieno[2,3-b]pyridin-4-yl]-2,6-diazaspiro[3.3]heptane-2-carbonyl}-2-azabicyclo[2.2.2]octan-5-one], in that order: 6.20, 5.96, 6.48, 82.9% and 79.3%.
For the compound `O=C([C@H]1N[C@H]2CC[C@@H]1C[C@H]2F)N1CC2(C1)CN(c1c(C(F)(F)F)cnc3sc(CC(F)(F)F)cc13)C2` [Example 10, [(1S,3S,4R,6R)-6-fluoro-2-azabicyclo[2.2.2]octan-3-yl]{6-[2-(2,2,2-trifluoroethyl)-5-(trifluoromethyl)thieno[2,3-b]pyridin-4-yl]-2,6-diazaspiro[3.3]heptan-2-yl}methanone], the figures for the pIC50 (in assay [1]; in the assay with MOLM-13 cells; with RS4; 11 cells) were 6.46, 5.68 and 6.09, respectively. In addition, the mrna remaining at 1 µM in assay [2] amounted to 68.8%; in assay [3] it was 69.5%.
Regarding `C=CCO[C@H]1C[C@H]2CC[C@@H]1N[C@@H]2C(=O)N1CC2(C1)CN(c1c(C(F)(F)F)cnc3sc(CC(F)(F)F)cc13)C2` [Example 11, {(1S,3S,4R,6S)-6-[(prop-2-en-1-yl)oxy]-2-azabicyclo[2.2.2]octan-3-yl}{6-[2-(2,2,2-trifluoroethyl)-5-(trifluoromethyl)thieno[2,3-b]pyridin-4-yl]-2,6-diazaspiro[3.3]heptan-2-yl}methanone], the pIC50 was 7.27 in assay [1], 6.14 in the assay with MOLM-13 cells and 6.20 in the assay with RS4; 11 cells. For the same compound, the mrna remaining at 1 µM in assay [2] is 60.7%; in assay [3] it was 64.5%.
Turning to `N#Cc1cnc2sc(CC(F)(F)F)cc2c1N1CC2(CN(C(=O)[C@H]3N[C@H]4CC[C@@H]3C(=O)C4)C2)C1` [Example 25, 4-{6-[(1S,3S,4S)-5-oxo-2-azabicyclo[2.2.2]octane-3-carbonyl]-2,6-diazaspiro[3.3]heptan-2-yl}-2-(2,2,2-trifluoroethyl)thieno[2,3-b]pyridine-5-carbonitrile], the pIC50 in assay [1] is 7.04; with MOLM-13 cells, 5.66; with RS4; 11 cells, 6.16.
